Laboratory results as given in the supplement of paper PMC10307832.

Key:
Experiment in all cases: relative viability (nuclei count vs DMSO), 5 days (fraction); higher = more cells survive
HCC-44 = tested on: HCC-44
How it was run: (§1)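 Medians of duplicate plates are given as relative viability. That measure is the nuclei count in treated wells divided by the count in vehicle wells. Counts were taken on 4× images of lung cancer cell lines in 1536-well plates, 5 days after pin-tool dosing the day after seeding with one drug alone or a fixed anchor-drug dose plus five library-drug doses (not always all listed) in √10 steps.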

COR-L23 = tested on: COR-L23
How it was run: as §1

NCI-H2023 = tested on: NCI-H2023
How it was run: as §1

NCI-H1944 = tested on: NCI-H1944
How it was run: as §1

NCI-H650 = tested on: NCI-H650
How it was run: as §1

ChaGo-K-1 = tested on: ChaGo-K-1
How it was run: as §1

NCI-H838 = tested on: NCI-H838
How it was run: as §1

NCI-H2087 = tested on: NCI-H2087
How it was run: as §1

NCI-H1651 = tested on: NCI-H1651
How it was run: as §1

EPLC-272H = tested on: EPLC-272H
How it was run: as §1

H3255 = tested on: H3255
How it was run: as §1

NCI-H2405 = tested on: NCI-H2405
How it was run: as §1

NCI-H1563 = tested on: NCI-H1563
How it was run: as §1

LCLC-103H = tested on: LCLC-103H
How it was run: as §1

HCC-827 = tested on: HCC-827
How it was run: as §1

EMC-BAC-2 = tested on: EMC-BAC-2
How it was run: as §1

NCI-H2085 = tested on: NCI-H2085
How it was run: as §1

NCI-H520 = tested on: NCI-H520
How it was run: as §1

SK-MES-1 = tested on: SK-MES-1
How it was run: as §1

LU99A = tested on: LU99A
How it was run: as §1

Structure (SMILES): Nc1ccn([C@@H]2O[C@H](CO)[C@@H](O)[C@@H]2O)c(=O)n1 [Cytarabine] + C[C@@H](Oc1cc(-c2cnn(C3CCNCC3)c2)cnc1N)c1c(Cl)ccc(F)c1Cl [Crizotinib] (partner 1 µM)
- relative viability (HCC-44; first compound 0.005 µM): 0.776
- relative viability (HCC-44; first compound 0.01581 µM): 0.831
- relative viability (HCC-44; first compound 0.05 µM): 0.626
- relative viability (HCC-44; first compound 0.1581 µM): 0.383
- relative viability (HCC-44; first compound 0.5 µM): 0.378
- relative viability (COR-L23; first compound 0.005 µM): 0.578
- relative viability (COR-L23; first compound 0.01581 µM): 0.631
- relative viability (COR-L23; first compound 0.05 µM): 0.405
- relative viability (COR-L23; first compound 0.1581 µM): 0.166
- relative viability (COR-L23; first compound 0.5 µM): 0.122
- relative viability (NCI-H2023; first compound 0.005 µM): 0.366
- relative viability (NCI-H2023; first compound 0.01581 µM): 0.368
- relative viability (NCI-H2023; first compound 0.05 µM): 0.113
- relative viability (NCI-H2023; first compound 0.1581 µM): 0.101
- relative viability (NCI-H2023; first compound 0.5 µM): 0.0749
- relative viability (NCI-H1944; first compound 0.005 µM): 0.9
- relative viability (NCI-H1944; first compound 0.01581 µM): 0.466
- relative viability (NCI-H1944; first compound 0.05 µM): 0.367
- relative viability (NCI-H1944; first compound 0.1581 µM): 0.2
- relative viability (NCI-H1944; first compound 0.5 µM): 0.176
- relative viability (NCI-H650; first compound 0.005 µM): 0.664
- relative viability (NCI-H650; first compound 0.01581 µM): 0.519
- relative viability (NCI-H650; first compound 0.05 µM): 0.353
- relative viability (NCI-H650; first compound 0.1581 µM): 0.259
- relative viability (NCI-H650; first compound 0.5 µM): 0.177
- relative viability (ChaGo-K-1; first compound 0.005 µM): 0.732
- relative viability (ChaGo-K-1; first compound 0.01581 µM): 0.717
- relative viability (ChaGo-K-1; first compound 0.05 µM): 0.521
- relative viability (ChaGo-K-1; first compound 0.1581 µM): 0.383
- relative viability (ChaGo-K-1; first compound 0.5 µM): 0.358
- relative viability (NCI-H838; first compound 0.005 µM): 0.715
- relative viability (NCI-H838; first compound 0.01581 µM): 0.877
- relative viability (NCI-H838; first compound 0.05 µM): 0.699
- relative viability (NCI-H838; first compound 0.1581 µM): 0.339
- relative viability (NCI-H838; first compound 0.5 µM): 0.224
- relative viability (NCI-H2087; first compound 0.005 µM): 0.702
- relative viability (NCI-H2087; first compound 0.01581 µM): 0.886
- relative viability (NCI-H2087; first compound 0.05 µM): 0.69
- relative viability (NCI-H2087; first compound 0.1581 µM): 0.731
- relative viability (NCI-H2087; first compound 0.5 µM): 0.537
- relative viability (NCI-H1651; first compound 0.005 µM): 0.869
- relative viability (NCI-H1651; first compound 0.01581 µM): 0.904
- relative viability (NCI-H1651; first compound 0.05 µM): 0.834
- relative viability (NCI-H1651; first compound 0.1581 µM): 0.584
- relative viability (NCI-H1651; first compound 0.5 µM): 0.549
- relative viability (EPLC-272H; first compound 0.005 µM): 0.667
- relative viability (EPLC-272H; first compound 0.01581 µM): 0.379
- relative viability (EPLC-272H; first compound 0.05 µM): 0.577
- relative viability (EPLC-272H; first compound 0.1581 µM): 0.326
- relative viability (EPLC-272H; first compound 0.5 µM): 0.368
- relative viability (H3255; first compound 0.005 µM): 0.76
- relative viability (H3255; first compound 0.01581 µM): 0.828
- relative viability (H3255; first compound 0.05 µM): 0.776
- relative viability (H3255; first compound 0.1581 µM): 0.724
- relative viability (H3255; first compound 0.5 µM): 0.667
- relative viability (NCI-H2405; first compound 0.005 µM): 0.754
- relative viability (NCI-H2405; first compound 0.01581 µM): 0.693
- relative viability (NCI-H2405; first compound 0.05 µM): 0.592
- relative viability (NCI-H2405; first compound 0.1581 µM): 0.464
- relative viability (NCI-H2405; first compound 0.5 µM): 0.327
- relative viability (NCI-H1563; first compound 0.005 µM): 0.806
- relative viability (NCI-H1563; first compound 0.01581 µM): 0.916
- relative viability (NCI-H1563; first compound 0.05 µM): 0.852
- relative viability (NCI-H1563; first compound 0.1581 µM): 0.809
- relative viability (NCI-H1563; first compound 0.5 µM): 0.606
- relative viability (LCLC-103H; first compound 0.005 µM): 0.942
- relative viability (LCLC-103H; first compound 0.01581 µM): 1.03
- relative viability (LCLC-103H; first compound 0.05 µM): 1.07
- relative viability (LCLC-103H; first compound 0.1581 µM): 1.03
- relative viability (LCLC-103H; first compound 0.5 µM): 0.977
- relative viability (HCC-827; first compound 0.005 µM): 0.593
- relative viability (HCC-827; first compound 0.01581 µM): 0.478
- relative viability (HCC-827; first compound 0.05 µM): 0.477
- relative viability (HCC-827; first compound 0.1581 µM): 0.197
- relative viability (HCC-827; first compound 0.5 µM): 0.249
- relative viability (EMC-BAC-2; first compound 0.005 µM): 0.592
- relative viability (EMC-BAC-2; first compound 0.01581 µM): 0.574
- relative viability (EMC-BAC-2; first compound 0.05 µM): 0.472
- relative viability (EMC-BAC-2; first compound 0.1581 µM): 0.242
- relative viability (EMC-BAC-2; first compound 0.5 µM): 0.185
- relative viability (NCI-H2085; first compound 0.005 µM): 0.718
- relative viability (NCI-H2085; first compound 0.01581 µM): 0.883
- relative viability (NCI-H2085; first compound 0.05 µM): 0.799
- relative viability (NCI-H2085; first compound 0.1581 µM): 0.552
- relative viability (NCI-H2085; first compound 0.5 µM): 0.621
- relative viability (NCI-H520; first compound 0.005 µM): 0.56
- relative viability (NCI-H520; first compound 0.01581 µM): 0.758
- relative viability (NCI-H520; first compound 0.05 µM): 0.831
- relative viability (NCI-H520; first compound 0.1581 µM): 0.56
- relative viability (NCI-H520; first compound 0.5 µM): 0.469
- relative viability (SK-MES-1; first compound 0.005 µM): 0.706
- relative viability (SK-MES-1; first compound 0.01581 µM): 0.741
- relative viability (SK-MES-1; first compound 0.05 µM): 0.367
- relative viability (SK-MES-1; first compound 0.1581 µM): 0.274
- relative viability (SK-MES-1; first compound 0.5 µM): 0.219
- relative viability (LU99A; first compound 0.005 µM): 0.62
- relative viability (LU99A; first compound 0.01581 µM): 0.549
- relative viability (LU99A; first compound 0.05 µM): 0.517
- relative viability (LU99A; first compound 0.1581 µM): 0.527
- relative viability (LU99A; first compound 0.5 µM): 0.498
